How the values were obtained:
[1] = target: T1, Nitric oxide synthase, inducible (Mus musculus) (UniProt P29477); assay: Inhibition of iNOS-induced NO production in LPS-stimulated mouse BV2 cells at 10 uM after 24 hrs; format: cell-based; conditions: BV-2
T1 sequence (whole entry): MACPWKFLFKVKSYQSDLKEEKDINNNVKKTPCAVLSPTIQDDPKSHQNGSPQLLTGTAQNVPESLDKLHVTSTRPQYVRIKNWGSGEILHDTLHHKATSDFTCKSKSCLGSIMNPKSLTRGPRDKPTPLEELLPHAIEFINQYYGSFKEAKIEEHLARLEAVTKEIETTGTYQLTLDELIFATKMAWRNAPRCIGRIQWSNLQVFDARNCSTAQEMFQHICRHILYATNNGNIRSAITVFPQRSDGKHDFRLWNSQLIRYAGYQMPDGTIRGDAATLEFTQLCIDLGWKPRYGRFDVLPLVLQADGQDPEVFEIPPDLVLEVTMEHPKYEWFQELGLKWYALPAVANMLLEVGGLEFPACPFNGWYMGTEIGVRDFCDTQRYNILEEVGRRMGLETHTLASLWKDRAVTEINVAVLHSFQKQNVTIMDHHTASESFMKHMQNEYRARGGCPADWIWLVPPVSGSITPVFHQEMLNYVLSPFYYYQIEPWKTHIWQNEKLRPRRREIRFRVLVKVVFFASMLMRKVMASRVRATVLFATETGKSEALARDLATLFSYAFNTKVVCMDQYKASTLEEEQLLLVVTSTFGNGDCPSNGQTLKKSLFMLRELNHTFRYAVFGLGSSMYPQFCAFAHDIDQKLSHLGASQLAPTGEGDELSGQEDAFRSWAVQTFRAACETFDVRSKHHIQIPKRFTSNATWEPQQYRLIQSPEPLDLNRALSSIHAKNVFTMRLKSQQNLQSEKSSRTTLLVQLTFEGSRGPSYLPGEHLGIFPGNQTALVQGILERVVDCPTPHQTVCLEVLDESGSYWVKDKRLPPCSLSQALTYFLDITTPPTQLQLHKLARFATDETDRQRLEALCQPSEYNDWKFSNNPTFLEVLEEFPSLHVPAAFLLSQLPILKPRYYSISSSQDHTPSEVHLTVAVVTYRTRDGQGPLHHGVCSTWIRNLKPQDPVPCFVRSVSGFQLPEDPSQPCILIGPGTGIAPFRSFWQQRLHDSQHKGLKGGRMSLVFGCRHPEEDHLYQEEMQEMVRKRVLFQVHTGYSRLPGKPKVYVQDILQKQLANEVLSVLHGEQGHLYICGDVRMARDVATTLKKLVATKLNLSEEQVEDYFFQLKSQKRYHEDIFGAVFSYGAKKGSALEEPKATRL

[2] = target: T2, Nitric oxide synthase, inducible (Mus musculus, UniProt P29477); assay: Inhibition of iNOS-induced NO production in LPS-stimulated mouse BV2 cells after 24 hrs; format: cell-based; conditions: bv-2
T2 sequence (P29477 whole entry): T1 sequence (whole entry)

| Compound | inhibition [1] | IC50 [2] |
| --- | --- | --- |
| COc1c(O)cc2oc(-c3ccc([N+](=O)[O-])cc3)cc(=O)c2c1O | 45.7% | 4.73 µM |
| COc1c(O)cc2oc(-c3cccc(F)c3)cc(=O)c2c1O | 39.9% | 11.4 µM |
| COc1c(O)cc2oc(-c3ccc(Cl)c(Cl)c3)cc(=O)c2c1O | 13.1% |  |
| COc1c(O)cc2oc(-c3ccc(F)cc3)cc(=O)c2c1O | 40.8% | 8.58 µM |
| COc1c(O)cc2oc(-c3cccc(Br)c3)cc(=O)c2c1O | 45.2% | 10.8 µM |
| COc1c(O)cc(O)c2c(=O)cc(-c3ccccc3)oc12 [WOGONIN] | 40% | 7.8 µM |
| COc1c(O)cc2oc(-c3ccc(F)cc3F)cc(=O)c2c1O | 10.6% |  |
| COc1c(O)cc2oc(-c3ccccc3F)cc(=O)c2c1O | 14.2% |  |
| COc1c(O)cc2oc(-c3ccccc3)cc(=O)c2c1O | 26% |  |
| COc1cc(-c2cc(=O)c3c(O)c(OC)c(O)cc3o2)ccc1O | 8.2% |  |

Source: ChEMBL document CHEMBL2010724, “Oroxylin A analogs exhibited strong inhibitory activities against iNOS-mediated nitric oxide (NO) production” (Bioorg Med Chem Lett, 2012)
